Test results published in publication PMC11157767 (Molecular Cancer, 2024).

System: TFG-MET allograft tumors
Assay: RNA-sequencing, differential expression and GSEA of TFG-MET allograft tumors
Format: in vivo, mouse
Settings: GSEA CAP vs Veh, C5 GO CC
Method: Error bars display standard error of mean, statistical significance was determined using t-test analysis. (****;p<0.0001, ***;p<0.001, **;p<0.01, *;p<0.05). […] Each dot represents an individual replicate. Error bars display standard error of the mean.
Each dot represents one gene.

## CNC(=O)c1ccc(-c2cnc3ncc(Cc4ccc5ncccc5c4)n3n2)cc1F [Capmatinib]
Padj 2.19055e-16
  NES GOCC_TRANSFERASE_COMPLEX: -1.9384
Padj 5.1503e-15
  NES GOCC_NUCLEAR_SPECK: -2.161
Padj 1.72395e-14
  NES GOCC_SPLICEOSOMAL_COMPLEX: -2.415
Padj 7.63768e-14
  NES GOCC_CHROMOSOME_TELOMERIC_REGION: -2.533
Padj 7.95066e-13
  NES GOCC_VACUOLAR_MEMBRANE: 2.04
Padj 1.82971e-12
  NES GOCC_SMALL_SUBUNIT_PROCESSOME: -2.75
Padj 1.03541e-11
  NES GOCC_NUCLEAR_PORE: -2.588
Padj 1.07393e-11
  NES GOCC_FIBRILLAR_CENTER: -2.424
Padj 1.91271e-11
  NES GOCC_CHROMATIN: -1.714
Padj 2.94795e-11
  NES GOCC_PRERIBOSOME_LARGE_SUBUNIT_PRECURSOR: -2.651
Padj 4.53721e-11
  NES GOCC_METHYLTRANSFERASE_COMPLEX: -2.484
Padj 7.98955e-11
  NES GOCC_NUCLEAR_CHROMOSOME: -2.219
Padj 1.33777e-10
  NES GOCC_RESPIRATORY_CHAIN_COMPLEX: 2.821
Padj 2.5338e-10
  NES GOCC_NUCLEAR_PERIPHERY: -2.3519
Padj 3.91151e-9
  NES GOCC_NUCLEAR_ENVELOPE: -1.852
Padj 4.48536e-8
  NES GOCC_RIBONUCLEOPROTEIN_GRANULE: -2.04
Padj 5.62031e-8
  NES GOCC_CATALYTIC_STEP_2_SPLICEOSOME: -2.31
Padj 6.31135e-8
  NES GOCC_INTRACELLULAR_PROTEIN_CONTAINING_COMPLEX: -1.665
Padj 7.03454e-8
  NES GOCC_TRANSCRIPTION_REGULATOR_COMPLEX: -1.873
Padj 7.11025e-8
  NES GOCC_CAJAL_BODY: -2.347
Padj 1.20627e-7
  NES GOCC_U2_TYPE_SPLICEOSOMAL_COMPLEX: -2.187
Padj 1.31956e-7
  NES GOCC_CILIUM: 1.633
Padj 1.56303e-7
  NES GOCC_CONDENSED_CHROMOSOME: -2.04
Padj 1.76109e-7
  NES GOCC_IMMUNOGLOBULIN_COMPLEX: 2.5876
Padj 2.31902e-7
  NES GOCC_CHROMOSOME_CENTROMERIC_REGION: -2.023
Padj 2.54822e-7
  NES GOCC_TRANSFERASE_COMPLEX_TRANSFERRING_PHOSPHORUS_CONTAINING_GROUPS: -1.9355
Padj 6.10966e-7
  NES GOCC_MOTILE_CILIUM: 2.148
Padj 1.03286e-6
  NES GOCC_INNER_MITOCHONDRIAL_MEMBRANE_PROTEIN_COMPLEX: 2.0966
Padj 1.09294e-6
  NES GOCC_HISTONE_METHYLTRANSFERASE_COMPLEX: -2.238
Padj 1.29564e-6
  NES GOCC_TERTIARY_GRANULE: 2.058
Padj 1.93407e-6
  NES GOCC_NUCLEAR_MEMBRANE: -1.855
Padj 2.62751e-6
  NES GOCC_NADH_DEHYDROGENASE_COMPLEX: 2.526
Padj 3.06538e-6
  NES GOCC_SM_LIKE_PROTEIN_FAMILY_COMPLEX: -2.133
Padj 3.31031e-6
  NES GOCC_LATE_ENDOSOME_MEMBRANE: 2.097
Padj 3.74343e-6
  NES GOCC_RNA_POLYMERASE_COMPLEX: -2.068
Padj 4.96006e-6
  NES GOCC_HETEROCHROMATIN: -2.172
Padj 5.11894e-6
  NES GOCC_PROTEIN_ACETYLTRANSFERASE_COMPLEX: -2.115
Padj 1.16359e-5
  NES GOCC_CYTOPLASMIC_STRESS_GRANULE: -2.152
Padj 1.16897e-5
  NES GOCC_VACUOLAR_LUMEN: 1.934
Padj 1.40276e-5
  NES GOCC_SECRETORY_GRANULE_MEMBRANE: 1.763
Padj 1.71689e-5
  NES GOCC_OXIDOREDUCTASE_COMPLEX: 2.0601
Padj 2.05111e-5
  NES GOCC_EXTERNAL_SIDE_OF_PLASMA_MEMBRANE: 1.72
Padj 2.22571e-5
  NES GOCC_CONDENSED_CHROMOSOME_CENTROMERIC_REGION: -1.979
Padj 3.58719e-5
  NES GOCC_SNO_S_RNA_CONTAINING_RIBONUCLEOPROTEIN_COMPLEX: -2.2
Padj 3.73055e-5
  NES GOCC_PHAGOCYTIC_VESICLE: 1.9159
Padj 4.79591e-5
  NES GOCC_HOST_CELLULAR_COMPONENT: -2.0648
Padj 6.26347e-5
  NES GOCC_SITE_OF_DNA_DAMAGE: -2.003
Padj 6.43287e-5
  NES GOCC_AZUROPHIL_GRANULE: 1.861
Padj 6.63265e-5
  NES GOCC_KINETOCHORE: -1.897
Padj 6.99707e-5
  NES GOCC_AUTOPHAGOSOME: 2.034
Padj 0.000108731
  NES GOCC_RNA_POLYMERASE_II_TRANSCRIPTION_REGULATOR_COMPLEX: -1.813
Padj 0.000125034
  NES GOCC_PML_BODY: -1.9697
Padj 0.000154107
  NES GOCC_EXORIBONUCLEASE_COMPLEX: -2.113
Padj 0.000165343
  NES GOCC_ENDORIBONUCLEASE_COMPLEX: -2.09
Padj 0.000179714
  NES GOCC_SMALL_NUCLEAR_RIBONUCLEOPROTEIN_COMPLEX: -2.0229
Padj 0.000186482
  NES GOCC_IMMUNOGLOBULIN_COMPLEX_CIRCULATING: 2.324
Padj 0.000272562
  NES GOCC_TERTIARY_GRANULE_MEMBRANE: 2.004
Padj 0.000275827
  NES GOCC_VESICLE_LUMEN: 1.602
Padj 0.000331136
  NES GOCC_LYSOSOMAL_LUMEN: 1.858
Padj 0.000358866
  NES GOCC_REPLICATION_FORK: -1.947
Padj 0.000460788
  NES GOCC_PRECATALYTIC_SPLICEOSOME: -1.97
Padj 0.000526361
  NES GOCC_EUCHROMATIN: -2.018
Padj 0.000558545
  NES GOCC_FICOLIN_1_RICH_GRANULE_MEMBRANE: 2.085
Padj 0.000649179
  NES GOCC_CYTOCHROME_COMPLEX: 2.153
Padj 0.000678026
  NES GOCC_PROTEIN_DNA_COMPLEX: -1.836
Padj 0.000757696
  NES GOCC_SITE_OF_DOUBLE_STRAND_BREAK: -1.897
Padj 0.000783651
  NES GOCC_PROTON_TRANSPORTING_TWO_SECTOR_ATPASE_COMPLEX: 2.098
  NES GOCC_SPECIFIC_GRANULE: 1.663
Padj 0.000871379
  NES GOCC_MLL1_2_COMPLEX: -2.023
  NES GOCC_RESPIRATORY_CHAIN_COMPLEX_IV: 2.188
Padj 0.000882106
  NES GOCC_CILIARY_TRANSITION_ZONE: 1.976
Padj 0.000959119
  NES GOCC_BLOOD_MICROPARTICLE: 1.774
Padj 0.00129051
  NES GOCC_PHAGOCYTIC_VESICLE_MEMBRANE: 1.86
Padj 0.00130287
  NES GOCC_SECONDARY_LYSOSOME: 2.219
Padj 0.00152226
  NES GOCC_TRANSCRIPTION_ELONGATION_FACTOR_COMPLEX: -1.897
Padj 0.00173594
  NES GOCC_NUCLEAR_REPLICATION_FORK: -1.935
Padj 0.00174948
  NES GOCC_TELOMERASE_HOLOENZYME_COMPLEX: -1.978
Padj 0.00185976
  NES GOCC_H4_HISTONE_ACETYLTRANSFERASE_COMPLEX: -1.863
Padj 0.00189918
  NES GOCC_CILIARY_PLASM: 1.756
Padj 0.00219768
  NES GOCC_POLYSOME: -1.796
Padj 0.00279919
  NES GOCC_PCG_PROTEIN_COMPLEX: -1.842
Padj 0.00319727
  NES GOCC_T_CELL_RECEPTOR_COMPLEX: 2.053
  NES GOCC_U2_TYPE_CATALYTIC_STEP_2_SPLICEOSOME: -1.927
Padj 0.00331543
  NES GOCC_SIDE_OF_MEMBRANE: 1.318
Padj 0.00386407
  NES GOCC_AZUROPHIL_GRANULE_LUMEN: 1.725
  NES GOCC_EUKARYOTIC_TRANSLATION_INITIATION_FACTOR_3_COMPLEX: -1.892
Padj 0.00392051
  NES GOCC_PROTON_TRANSPORTING_TWO_SECTOR_ATPASE_COMPLEX_PROTON_TRANSPORTING_DOMAIN: 2.029
  NES GOCC_SYNAPTIC_VESICLE_MEMBRANE: 1.708
Padj 0.00460194
  NES GOCC_SMN_SM_PROTEIN_COMPLEX: -1.879
Padj 0.00465351
  NES GOCC_MHC_PROTEIN_COMPLEX: 2.03
Padj 0.00477082
  NES GOCC_PLASMA_MEMBRANE_BOUNDED_CELL_PROJECTION_CYTOPLASM: 1.5011
  NES GOCC_TRANSLATION_PREINITIATION_COMPLEX: -1.882
Padj 0.00505147
  NES GOCC_9PLUS2_MOTILE_CILIUM: 1.741
Padj 0.00518961
  NES GOCC_FICOLIN_1_RICH_GRANULE: 1.502
Padj 0.00609112
  NES GOCC_ENDOSOME_MEMBRANE: 1.2787
Padj 0.00659701
  NES GOCC_PRESPLICEOSOME: -1.8326
Padj 0.007008
  NES GOCC_ATPASE_COMPLEX: -1.657
Padj 0.00786364
  NES GOCC_ENDOLYSOSOME: 1.964
Padj 0.00886352
  NES GOCC_EUKARYOTIC_48S_PREINITIATION_COMPLEX: -1.849
Padj 0.00895831
  NES GOCC_PHAGOPHORE_ASSEMBLY_SITE: 1.892
Padj 0.00906928
  NES GOCC_INTRACILIARY_TRANSPORT_PARTICLE: 1.972
Padj 0.00954254
  NES GOCC_TRANSCRIPTION_REPRESSOR_COMPLEX: -1.652
